Assay results: PMC10482691, “LTP induction by structural rather than enzymatic functions of CaMKII” (Nature, 2023)
Where “and” joins values, the source holds several entries; their conditions need not be identical. Identical values can stand only once. Like-named read-outs stand apart in the source and are kept apart here.

Tests used:
[1] = target: purified CaMKIIα binding to GST–GluN2B-c WT (Homo sapiens, UniProt Q9UQM7); experiment: CaMKII binding to immobilized GST–GluN2B-c in vitro; settings: Ca2+/CaM, 1 mM ATP; GST–GluN2B-c WT
Description: CaMKII–GluN2B binding assays were done as described[9],[13],[25]. Briefly, GST–GluN2B-c tail (GST–2BC) was immobilized on anti-GST antibody-coated microtiter plates (Thermo Scientific), blocked for 30 min with 5% BSA and then overlaid with […] CaMKII (subunit concentration) in PIPES-buffered saline (pH 7.2) containing 2 mM Ca^2+, 1 μM CaM, 1 mM Mg^2+, 0.1% BSA and 0.1% Tween-20 for 20 min at room temperature. […] After extensive washes in buffer containing 1 mM EGTA, GST–2BC and bound CaMKII were eluted for 10 min in SDS loading buffer at 95 °C. Bound CaMKII was measured via immunoblot.

purified CaMKIIα [2] = experiment: Km of CaMKII for ATP (GST-GluA1 S831 phosphorylation with increasing ATP); format: biochemical; settings: 30 °C, 4 independent experiments, read-out: CaMKII Michaelis-Menten constant (Km) for ATP
Description: CaMKII-mediated phosphorylation of GluA1 S831 or GluN2B S1303 was measured by in vitro kinase reaction with a purified GST–GluA1 C-terminal tail or GST-GluN2B C-terminal tail. Reactions contained 40 nM CaMKII, 1 μM GST–GluA1, 50 mM PIPES, pH 7.1, 2 mM CaCl2, 10 mM MgCl2, 1 μM calmodulin, 1–4 mM ATP and 1 μM okadaic acid. Negative controls were prepared without ATP. Reactions were done at 30 °C for 20 s; reactions were stopped by adding SDS loading buffer and incubation in a boiling water bath for 5 min. GST, phospho-S831, CaMKII, phospho-T286 or phospho-S1303 were detected in the samples by immunoblot analysis. […]
Data are presented as mean values +/− SEM. a, Comparison of AS105 vs AS283 structure. b, Representative Immunoblots and quantification of in vitro kinase reactions at 30 °C with increasing ATP concentration measuring purified CaMKIIα phosphorylation of GST-GluA1 S831. […] Correlation indices before and after ionomycin-induced colocalization of GFP-CaMKII and mCherry-2BC under vehicle or 10 μM AS105 conditions (n = 23,18 cells; ***p < 0.001, RM two-way ANOVA with Šídák’s multiple comparisons test). Scale bar indicates 10 μm. […] CaMKII synaptic enrichment was measured before and after cLTP (n = 11,10 cells; *p < 0.05; RM two-way ANOVA with Šídák’s multiple comparisons test). […]

purified CaMKIIα [3] = tested on: purified CaMKIIα; parameters: method as in PMID 29294328, PMID 8385100, PMID 19857459, PMID 14558884; settings: read-out: previously published Km values for ATP; cited from earlier work
purified CaMKIIα [4] = experiment: Km of CaMKII for ATP (GST-GluA1 S831 phosphorylation with increasing ATP); format: biochemical
[5] = tested on: CA3–CA1 Schaffer collateral pathway LTP; parameters: method as in PMID 2549638; settings: previous studies; cited from earlier work

bound CaMKIIα (immunoblot, relative) [1]	Km (purified CaMKIIα [2]) [µM]	CaMKIIα phosphorylation of GST-GluA1 S831 (relative) (purified CaMKIIα [4]; 1.5625 uM ATP)	CaMKIIα phosphorylation of GST-GluA1 S831 (relative) (purified CaMKIIα [4]; 25 uM ATP)	CaMKIIα phosphorylation of GST-GluA1 S831 (relative) (purified CaMKIIα [4]; 100 uM ATP)	CaMKIIα phosphorylation of GST-GluA1 S831 (relative) (purified CaMKIIα [4]; 200 uM ATP)	CaMKIIα phosphorylation of GST-GluA1 S831 (relative) (purified CaMKIIα [4]; 400 uM ATP)	SMILES	Km (purified CaMKIIα [3]) [µM]	effect on LTP [5]
4.397 and 5.355 and 6.655 and 4.688	33.3	0	0.594 and 0.4443 and 0.666 and 0.3478	0.9012 and 0.7992 and 1.006 and 0.6032	1.078 and 0.8135 and 1.004 and 0.7632	1.127 and 0.9367 (2×)	Nc1ncnc2c1ncn2[C@@H]1O[C@H](COP(=O)(O)OP(=O)(O)OP(=O)(O)O)[C@@H](O)[C@H]1O [ATP]	8 to 127	
							CC1CNCCN1S(=O)(=O)c1cccc2cnccc12 (stereo not drawn) [H7]		LTP inhibition
